# Source: patent US11453666B2, “Autotaxin inhibitory compounds” (Cancer Research Technology Limited, priority 2015, dated 2022)
# Target: human recombinant ATX (Homo sapiens, UniProt Q13822)
# Assay: Autotaxin (ATX) activity Quanta Red assay
# Type: biochemical
# Settings: Table 2: additional compounds tested for ATX activity (Quanta Red Assay); read-out: Activity
# Protocol: The reaction was stopped after 2 hours with a 20 μL addition of Quanta Red Stop solution (1:20 dilution in distilled water). The above-described mixture with DMSO alone was used as a positive control whereas that with DMSO alone without ATX was taken as a negative control.
# Fluorescence was determined in a BMG Labtech Pherastar plus plate reader ([…]). Data were analysed using Excel fit software. IC50 values were determined in duplicate.
row,IC50 [nM],Structure (SMILES)
1,8810,"CCCCNC(=O)CCc1nc2cccnc2n1Cc1ccccc1 [Example 228, 3-(3-Benzyl-3H-imidazo[4,5-b]pyridin-2-yl)-N-butyl-propionamide]"
2,708,"CCOc1ccc(CCNC(=O)CCc2nc3cccnc3n2Cc2ccccc2)cc1 [Example 225, 3-(3-Benzyl-3H-imidazo[4,5-b]pyridin-2-yl)-N-[2-(4-ethoxy-phenyl)-ethyl]-propionamide]"
3,720,"COc1ccc(Cn2c(CCC(=O)NCc3ccc4c(c3)OCO4)nc3cccnc32)cc1 [Example 234, N-Benzo[1,3]dioxol-5-ylmethyl-3-[3-(4-methoxy-benzyl)-3H-imidazo[4,5-b]pyridin-2-yl]-propionamide]"

# Same assay, conditions: Table 3: commercially available compounds tested for Autotaxin activity (Quanta Red assay); read-out: Activity
row,IC50 [nM],Structure (SMILES)
1,406,"COc1ccc(Cn2c(CCC(=O)NCc3ccccc3)nc3cccnc32)cc1 [Example 236, N-Benzyl-3-[3-(4-methoxy-benzyl)-3H-imidazo[4,5-b]pyridin-2-yl]-propionamide, reference compound]"
2,473,"COc1ccc(CNC(=O)CCc2nc3cccnc3n2Cc2ccccc2)cc1 [Example 238, 3-(3-Benzyl-3H-imidazo[4,5-b]pyridin-2-yl)-N-(4-methoxy-benzyl)-propionamide, reference compound]"
3,227,"COc1ccc(Cn2c(CCC(=O)NCCc3ccccc3)nc3cccnc32)cc1 [Example 237, 3-[3-(4-Methoxy-benzyl)-3H-imidazo[4,5-b]pyridin-2-yl]-N-phenethyl-propionamide, reference compound]"

# Same assay, conditions: human recombinant ATX 0.8 μg/mL, 2 hours at room temperature, IC50 determined in duplicate; read-out: Activity (ATX activity, Quanta Red assay; IC50)
row,Structure (SMILES),IC50 [nM]
1,"C[C@H](NC(=O)COc1nc2cccnc2n1Cc1ccc(OC(F)(F)F)cc1)c1ccc(Cl)cc1 [Example 152, N—[(S)-1-(4-chloro-phenyl)-ethyl]-2-[3-(4-trifluoromethoxy-benzyl)-3H-imidazo[4,5-b]pyridin-2-yloxy]-acetamide]",5
2,"COc1ccc(Cn2c(CCC(=O)N[C@@H](C)c3ccc(Cl)cc3)nc3cccnc32)cc1 [Example 84, N-[(S)-1-(4-Chloro-phenyl)-ethyl]-3-[3-(4-methoxy-benzyl)-3H-imidazo[4,5-b]pyridin-2-yl]-propionamide]",3

# Same assay, conditions: read-out: Activity (ATX activity, Quanta Red assay; IC50)
row,Structure (SMILES),IC50 [nM]
1,"COc1ccc(Cn2c(CCC(=O)NCc3cccc(C)c3)nc3cccnc32)cc1 [Example 115, 3-[3-(4-Methoxy-benzyl)-3H-imidazo[4,5-b]pyridin-2-yl]-N-(3-methyl-benzyl)-propionamide]",650
2,"O=C(CCc1nc2cccnc2n1Cc1ccc(F)c(F)c1)NC(CO)c1ccc(F)cc1 (stereo not drawn) [Example 50, 3-[3-(3,4-Difluoro-benzyl)-3H-imidazo[4,5-b]pyridin-2-yl]-N-[1-(4-fluoro-phenyl)-2-hydroxy-ethyl]-propionamide]",22
3,"CN(C)CCCOc1ccc(CNC(=O)CCc2nc3cccnc3n2Cc2ccc(OC(F)(F)F)cc2)cc1 [Example 10, N-[4-(3-Dimethylamino-propoxy)-benzyl]-3-[3-(4-trifluoromethoxy-benzyl)-3H-imidazo[4,5-b]pyridin-2-yl]-propionamide]",2
4,"O=C(CCc1nc2cccnc2n1Cc1ccc(C(F)(F)F)cc1)NC(CO)c1ccc(OC(F)(F)F)cc1 (stereo not drawn) [Example 32, N-[2-Hydroxy-1-(4-trifluoromethoxy-phenyl)-ethyl]-3-[3-(4-trifluoromethyl-benzyl)-3H-imidazo[4,5-b]pyridin-2-yl]-propionamide]",6
5,"COc1ccc(CNC(=O)CCc2nc3cccnc3n2Cc2cccc(F)c2)cc1 [Example 110, 3-[3-(3-Fluoro-benzyl)-3H-imidazo[4,5-b]pyridin-2-yl]-N-(4-methoxy-benzyl)-propionamide]",262
6,"COc1ccc(Cn2c(CCC(=O)N[C@@H](C)c3ccccc3)nc3cccnc32)cc1 [Example 92, 3-[3-(4-Methoxy-benzyl)-3H-imidazo[4,5-b]pyridin-2-yl]-N-((S)-1-phenyl-ethyl)-propionamide]",17
7,"Cc1cnc2c(c1)nc(CCC(=O)NCc1ccc(OCCCN(C)C)cc1)n2Cc1ccc(OC(F)(F)F)cc1 [Example 26, N-[4-(3-Dimethylamino-propoxy)-benzyl]-3-[6-methyl-3-(4-trifluoromethoxy-benzyl)-3H-imidazo[4,5-b]pyridin-2-yl]-propionamide]",4
8,"COc1ccc(Cn2c(CCC(=O)NCc3ccccc3F)nc3cccnc32)cc1 [Example 114, N-(2-Fluoro-benzyl)-3-[3-(4-methoxy-benzyl)-3H-imidazo[4,5-b]pyridin-2-yl]-propionamide]",301
9,"O=C(CCc1nc2cccnc2n1Cc1ccc(F)c(F)c1)NCc1ccc(OC(F)(F)F)cc1 [Example 57, 3-[3-(3,4-Difluoro-benzyl)-3H-imidazo[4,5-b]pyridin-2-yl]-N-(4-trifluoromethoxy-benzyl)-propionamide]",58
10,"COc1ccc(CNC(=O)CCc2nc3cccnc3n2Cc2ccc(C)cc2)cc1 [Example 103, N-(4-Methoxy-benzyl)-3-[3-(4-methyl-benzyl)-3H-imidazo[4,5-b]pyridin-2-yl]-propionamide]",57
11,"CC(C)(C)OC(=O)N1CCC(CNC(=O)CCc2nc3ccncc3n2Cc2ccc(OC(F)(F)F)cc2)CC1 [Example 135, 4-({3-[3-(4-Trifluoromethoxy-benzyl)-3H-imidazo[4,5-c]pyridin-2-yl]-propionylamino}-methyl)-piperidine-1-carboxylic acid tert-butyl ester]",1570
12,"Cc1ccc2nc(CCC(=O)N[C@@H](C)c3ccc(Cl)cc3)n(Cc3ccc(F)cc3)c2n1 [Example 79, N-[(S)-1-(4-Chloro-phenyl)-ethyl]-3-[3-(4-fluoro-benzyl)-5-methyl-3H-imidazo[4,5-b]pyridin-2-yl]-propionamide]",94
13,"CC(C)COc1ccc(Cn2c(CCC(=O)N[C@@H](C)c3ccc(F)cc3)nc3cccnc32)cc1 [Example 156, N—[(S)-1-(4-fluoro-phenyl)-ethyl]-3-[3-(4-isobutoxy-benzyl)-3H-imidazo[4,5-b]pyridin-2-yl]-propionamide]",704
14,"C[C@H](NC(=O)CCc1cc2cccnc2n1Cc1ccc(OC(F)(F)F)cc1)c1ccc(F)cc1 [Example 137, N—[(S)-1-(4-fluoro-phenyl)-ethyl]-3-[1-(4-trifluoromethoxy-benzyl)-1H-pyrrolo[2,3-b]pyridin-2-yl]-propionamide]",10

# Continued, values first:
row,IC50 [nM],Structure (SMILES)
1,1,"C[C@H](NC(=O)CCc1nc2cccnc2n1Cc1ccc(OC(F)(F)F)cc1)c1ccc(N2CC[C@@H](N(C)C)C2)cc1 [Example 168, N-{(S)-1-[4-((R)-3-Dimethylamino-pyrrolidin-1-yl)-phenyl]-ethyl}-3-[3-(4-trifluoromethoxy-benzyl)-3H-imidazo[4,5-b]pyridin-2-yl]-propionamide]"
2,1,"C[C@H](NC(=O)CCc1nc2cccnc2n1Cc1ccc(OC(F)(F)F)cc1)c1ccc(N2CC[C@H](N(C)C)C2)cc1 [Example 169, N-{(S)-1-[4-((S)-3-Dimethylamino-pyrrolidin-1-yl)-phenyl]-ethyl}-3-[3-(4-trifluoromethoxy-benzyl)-3H-imidazo[4,5-b]pyridin-2-yl]-propionamide]"
3,2,"O=C(CCc1nc2cccnc2n1Cc1ccc(C(F)(F)F)cc1)N[C@H](Cc1ccccc1)C(=O)O [Example 196, (R)-3-Phenyl-2-{3-[3-(4-trifluoromethyl-benzyl)-3H-imidazo[4,5-b]pyridin-2-yl]-propionylamino}-propionic acid]"
4,83,"C[C@H](NC(=O)CCc1nc2cccnc2n1Cc1ccc(F)c(F)c1)c1ccc(N2CCNCC2)cc1 [Example 193, 3-[3-(3,4-Difluoro-benzyl)-3H-imidazo[4,5-b]pyridin-2-yl]-N-[(S)-1-(4-piperazin-1-yl-phenyl)-ethyl]-propionamide]"
5,188,"O=C(CCc1nc2cccnc2n1Cc1ccc(OC(F)(F)F)cc1)N[C@H](CO)Cc1ccc(O)cc1 [Example 205, N-[(S)-1-Hydroxymethyl-2-(4-hydroxy-phenyl)-ethyl]-3-[3-(4-trifluoromethoxy-benzyl)-3H-imidazo[4,5-b]pyridin-2-yl]-propionamide]"
6,15,"C[C@@H]1CN(c2ccc([C@H](C)NC(=O)CCc3nc4cccnc4n3Cc3ccc(F)c(F)c3)cc2)CCN1 [Example 188, 3-[3-(3,4-Difluoro-benzyl)-3H-imidazo[4,5-b]pyridin-2-yl]-N-{(S)-1-[4-((R)-3-methyl-piperazin-1-yl)-phenyl]-ethyl}-propionamide]"
7,17,"C[C@H](NC(=O)NCc1nc2cccnc2n1Cc1ccc(F)c(F)c1)c1ccc(Br)cc1 [Example 158, 1-[(S)-1-(4-Bromo-phenyl)-ethyl]-3-[3-(3,4-difluoro-benzyl)-3H-imidazo[4,5-b]pyridin-2-ylmethyl]-urea]"
8,3,"C[C@H](NC(=O)CSc1nc2cccnc2n1Cc1ccc(F)cc1)c1ccc(N2CCOCC2)cc1 [Example 147, 2-[3-(4-Fluoro-benzyl)-3H-imidazo[4,5-b]pyridin-2-ylsulfanyl]-N-[(S)-1-(4-morpholin-4-yl-phenyl)-ethyl]-acetamide]"
9,10,"C[C@H](NC(=O)CCc1cc2cccnc2n1Cc1ccc(Cl)cc1)c1ccc(F)cc1 [Example 138, 3-[1-(4-Chloro-benzyl)-1H-pyrrolo[2,3-b]pyridin-2-yl]-N-[(S)-1-(4-fluoro-phenyl)-ethyl]-propionamide]"
10,598,"C[C@@H](c1ccc(F)cc1)n1c(CCC(=O)N[C@H](Cc2ccccc2)C(=O)O)nc2cccnc21 [Example 201, (R)-2-(3-{3-[(S)-1-(4-Fluoro-phenyl)-ethyl]-3H-imidazo[4,5-b]pyridin-2-yl}-propionylamino)-3-phenyl-propionic acid]"
11,495,"CC(=O)N1CCC(CNC(=O)CCc2nc3cccnc3n2Cc2ccc(OC(F)(F)F)cc2)CC1 [Example 216, N-(1-Acetyl-piperidin-4-ylmethyl)-3-[3-(4-trifluoromethoxy-benzyl)-3H-imidazo[4,5-b]pyridin-2-yl]-propionamide]"
